Key:
Mus musculus [1] = experiment: In vivo AMPA antagonistic activity was determined by measuring ability to antagonize AMPA induced lethal convulsions in mice at 15 min upon intraperitoneal administration; assay type: functional; details: ip, 0.25 h
Mus musculus [2] = experiment: In vivo AMPA antagonistic activity was determined by measuring ability to antagonize AMPA induced lethal convulsions in mice at 60 min upon intraperitoneal administration; assay type: functional; details: ip, 1 h
[3] = molecular target: Glutamate receptor ionotropic, AMPA (Mus musculus, UniProt P23818+P23819+Q9Z2W8+Q9Z2W9)
Description: Compound was tested for binding affinity against Ionotropic glutamate receptor AMPA using [3H]AMPA as a radioligand.

Question: What does the source list for `O=C(O)CCn1c(=O)c(=O)[nH]c2cc([N+](=O)[O-])c(-n3cccc3)cc21`?
Answer: ED50 (Mus musculus [1]): > 30 mg/kg; ED50 (Mus musculus [2]): > 30 mg/kg; Ki [3]: 330 nM

Question: What does the source list for `CCOC(=O)Cn1c(=O)c(=O)[nH]c2cc([N+](=O)[O-])c(-n3cccc3)cc21`?
Answer: ED50 (Mus musculus [1]): > 50 mg/kg; ED50 (Mus musculus [2]): 26 mg/kg; Ki [3]: 910 nM

Question: How did the Ki [3] turn out when `O=c1[nH]c2cc(-n3cccc3)c([N+](=O)[O-])cc2n(C2CCCCC2)c1=O` was run?
Answer: 25000 nM

Question: `Oc1nc2cc(-n3cccc3)c(C(F)(F)F)cc2nc1O` was tested. Which Ki [3] did it give?
Answer: 3000 nM

Question: With `O=c1[nH]c2cc(Cl)c(-n3cccc3)cc2n(C2CCCCC2)c1=O` as the compound, how does the Ki [3] read?
Answer: 10000 nM

Question: With `CCC(CC)Cn1c(=O)c(=O)[nH]c2cc([N+](=O)[O-])c(-n3cccc3)cc21` as the compound, how does the Ki [3] read?
Answer: 6000 nM

Question: With `O=C(CCn1c(=O)c(=O)[nH]c2cc(C(F)(F)F)c(-n3cccc3)cc21)NCc1ccccc1` as the compound, how does the Ki [3] read?
Answer: 8000 nM

Question: For `O=C(O)Cn1c(=O)c(=O)[nH]c2cc(C(F)(F)F)c(-n3cccc3)cc21`, which ED50 (Mus musculus [1]) is on record?
Answer: > 50 mg/kg

Question: And the ED50 (Mus musculus [2])?
Answer: > 50 mg/kg

Question: And the Ki [3]?
Answer: 170 nM

Question: Which Ki [3] does the source give for `Oc1nc2cc(C(F)(F)F)cc(-n3cccc3)c2nc1O` here?
Answer: > 25000 nM

Question: How did the Ki [3] turn out when `COC(=O)Cn1c(=O)c(=O)[nH]c2cc(C(F)(F)F)c(-n3cccc3)cc21` was run?
Answer: > 25000 nM

Question: `CNC(=O)Cn1c(=O)c(=O)[nH]c2cc(C(F)(F)F)c(-n3cccc3)cc21` was tested. Which Ki [3] did it give?
Answer: 20000 nM

Question: Which results are given for `NS(=O)(=O)c1cccc2c1c([N+](=O)[O-])cc1nc(O)c(O)nc12` [NBQX]?
Answer: ED50 (Mus musculus [1]): > 50 mg/kg; ED50 (Mus musculus [2]): > 50 mg/kg

Question: `CCOC(=O)CCn1c(=O)c(=O)[nH]c2cc([N+](=O)[O-])c(-n3cccc3)cc21` was tested. Which ED50 (Mus musculus [1]) did it give?
Answer: > 30 mg/kg

Question: And the ED50 (Mus musculus [2])?
Answer: 14 mg/kg

Question: And the Ki [3]?
Answer: 260 nM

Question: `CCn1c(=O)c(=O)[nH]c2cc([N+](=O)[O-])c(-n3cccc3)cc21` was tested. Which ED50 (Mus musculus [1]) did it give?
Answer: > 50 mg/kg

Question: What about the ED50 (Mus musculus [2]) of the same compound?
Answer: 12 mg/kg

Question: What about the Ki [3] of the same compound?
Answer: 850 nM

Question: Which Ki [3] does the source give for `O=c1[nH]c2cc(C(F)(F)F)c(-n3cccc3)cc2n(C2CCCCC2)c1=O` here?
Answer: 1600 nM

Question: `CS(=O)(=O)c1cc2[nH]c(=O)c(=O)n(C3CCCCC3)c2cc1-n1cccc1` was tested. Which Ki [3] did it give?
Answer: 15000 nM

Question: Which results are given for `O=C(O)Cn1c(=O)c(=O)[nH]c2cc([N+](=O)[O-])c(-n3cccc3)cc21`?
Answer: ED50 (Mus musculus [1]): 30 mg/kg; ED50 (Mus musculus [2]): 30 mg/kg; Ki [3]: 70 nM

Question: Which Ki [3] does the source give for `O=C(Cn1c(=O)c(=O)[nH]c2cc([N+](=O)[O-])c(-n3cccc3)cc21)NCc1ccccc1` here?
Answer: 20000 nM

Question: Which Ki [3] does the source give for `O=C(Cn1c(=O)c(=O)[nH]c2cc([N+](=O)[O-])c(-n3cccc3)cc21)Nc1ccccc1` here?
Answer: 2100 nM

Question: Which Ki [3] does the source give for `O=C(Cn1c(=O)c(=O)[nH]c2cc([N+](=O)[O-])c(-n3cccc3)cc21)NCCc1ccccc1` here?
Answer: 20000 nM

Question: `CCOC(=O)CCn1c(=O)c(=O)[nH]c2cc(C(F)(F)F)c(-n3cccc3)cc21` was tested. Which Ki [3] did it give?
Answer: 580 nM

Question: `Oc1nc2cc(Cl)c(-n3cccc3)cc2nc1O` was tested. Which Ki [3] did it give?
Answer: 20000 nM

Question: Which Ki [3] does the source give for `O=c1[nH]c2cc([N+](=O)[O-])c(-n3cccc3)cc2n(C2CC2)c1=O` here?
Answer: 3500 nM

Question: For `CCNC(=O)Cn1c(=O)c(=O)[nH]c2cc([N+](=O)[O-])c(-n3cccc3)cc21`, which Ki [3] is on record?
Answer: 2700 nM

Question: With `O=C(O)CCn1c(=O)c(=O)[nH]c2cc(C(F)(F)F)c(-n3cccc3)cc21` as the compound, how does the ED50 (Mus musculus [1]) read?
Answer: > 50 mg/kg

Question: What about the ED50 (Mus musculus [2]) of the same compound?
Answer: > 50 mg/kg

Question: What about the Ki [3] of the same compound?
Answer: 390 nM

Question: Which results are given for `O=[N+]([O-])c1cc2nc(O)c(O)nc2cc1-n1cccc1`?
Answer: ED50 (Mus musculus [1]): 21 mg/kg; ED50 (Mus musculus [2]): 31 mg/kg; Ki [3]: 400 nM

Question: `O=c1[nH]c2cc([N+](=O)[O-])c(-n3cccc3)cc2n(C2CCCCC2)c1=O` was tested. Which ED50 (Mus musculus [1]) did it give?
Answer: > 50 mg/kg

Question: What about the ED50 (Mus musculus [2]) of the same compound?
Answer: 22 mg/kg

Question: What about the Ki [3] of the same compound?
Answer: 400 nM

Source: ChEMBL document CHEMBL1128942, “Pyrrolylquinoxalinediones: A new class of AMPA receptor antagonists” (Bioorg Med Chem Lett, 1996)
